Values of other authors as cited in US20160089380A1, “PROGESTERONE IMPREGNATED VAGINAL RING/PESSARY” (YALE UNIVERSITY, priority 2014, published 2016).

Experiments:
women [1] = conditions: two studies
women [2] = test system: women

CC(=O)[C@H]1CC[C@H]2[C@@H]3CCC4=CC(=O)CC[C@]4(C)[C@H]3CC[C@]12C [progesterone]
risk of preterm birth <34 weeks (RR) (women [1]; 438 women, 95% CI 0.45 to 0.90): 0.64
risk of preterm birth at <28 weeks' gestation (RR) (women [1]; 1115 women, 95% CI 0.37 to 0.93): 0.59
risk of preterm birth <37 weeks (average RR) (women [2]; 10 studies, 1750 women, 95% CI 0.42 to 0.74): 0.55
risk of preterm birth <34 weeks (average RR) (women [2]; five studies, 602 women, 95% CI 0.14 to 0.69): 0.31
increase in pregnancy prolongation, mean difference (MD) (women [2]; one study, 148 women, 95% CI 2.15 to 6.79): 4.47 weeks
